In US20250345469A1, “COMPOSITION COMPRISING A RAPALOG AND A RADIOLABELLED GASTRIN ANALOGUE, IN PARTICULAR FOR USE IN THE TREATMENT AND/OR DIAGNOSIS OF CCKB RECEPTOR POSITIVE CANCER OR TUMORS” (Paul Scherrer Institut, priority 2020, published 2025):
Like-named read-outs stand apart in the source and are kept apart here.

Tests used:
A431/CCKBR cells [1] = assay: Proliferation assay (CellTiter 96 AQueous, MTS); type: cell-based, human; settings: 10 μM kinase inhibitor; FIG. 1C
Procedure: Cells were seeded in 96-well plates before treatment as described above, and cell proliferation was analyzed by a CellTiter 96 AQueous Non-Radioactive Cell Proliferation Assay (Promega) according to the manufacturer's instructions. Absorbance of MTS bio-reduced into a formazan was measured at 570 nm with a reference of 650 nm using a MicroPlate Reader (PerkinElmer). The assay was performed in triplicate.

A431/CCKBR cells [2] = assay: In vitro radiolabelled peptide internalization assay; type: cell-based, human; settings: for Protein levels as compared to control: A431/CCKBR cell lysates, 20 h treatment, FIG. 2B; for membrane bound activity: treated vs control cells, FIG. 2A
Procedure: (§1) 2.5×10^5 cells were seeded on 6-well plates. Eight hours later cells were treated with appropriate inhibitors (as indicated) for 20 h. […] After 1 or 2 h incubation, radioactive medium (together with PBS wash) was collected and the cells were subjected to 2× wash with glycine buffer (pH=2) for 5 min at RT followed by a dissolving step in 1 M NaOH for 15 min at 37° C. […] Protein concentration of NaOH-dissolved cell lysates was measured by spectrophotometry using a NanoPhotometer® UV-Vis P-Class (Implen).

AR42J cells = assay: as above; type: cell-based, rat; settings: AR42J cell lysates, FIG. 2B
Procedure: as §1

[3] = tested on: mTORC1-regulated phosphorylation of ribosomal protein S6 at Ser235/236; assay: WB analysis of phospho-S6 (mTORC1 activity); type: cell-based, human; settings: A431/CCKBR cells, 20 h treatment, FIG. 2C
Procedure: The inhibitor activity of the rapamycin and/or rapalog towards mTORC1 can be determined by measuring the level of phosphorylation of ribosomal protein S6 by Western Blot analysis as described further below.
(§2) Antibodies against phospho-S6 at S235/S236 (D57.2.2F) and GAPDH (14C10) were obtained from Cell Signaling Technology, whereas anti-CCKBR (ab77077) was from Abcam. Cells were homogenized in lysis buffer (50 mM Tris-HCl pH 7.5, 150 mM NaCl, 1% Triton X, 0.1% SDS supplemented with 1 mM sodium orthovanadate, 1 mM NaF and protease inhibitor cocktail (Roche)). Aliquots of 50 μg protein extracts were separated by SDS-PAGE and transferred to PVDF membranes (Millipore) by electroblotting. Membranes were blocked with 5% skim milk in TBST (0.1% Tween 20) for 1 h, and incubated with 2% BSA in TBST overnight with the primary antibody followed by 2 h incubation with HRP-conjugated secondary antibody. Protein-specific signals were detected by a chemiluminescence reagent (ECL) and signals were acquired by using ImageQuant RT ECL Imager (GE Healthcare).

CCKBR = assay: WB analysis of CCKBR expression in deglycosylated lysates; type: cell-based, human; settings: 50 nM or 100 nM RAD001, 20 h, A431/CCKBR cells
Procedure: For CCKBR-specific knock-down, duplex siRNAs against CCKBR or control duplex against luciferase (Microsynth) were used at a final concentration of 100 nM in Optimem (Gibco): CCKBRseq1 sense RNA 5′-[…]dTdT-3′(SEQ ID NO:5), CCKBRseq2 sense RNA 5′-[…]dTdT-3′(SEQ ID NO:6) and control sense RNA 5′-[…]dTdT-3′(SEQ ID NO:7). Cells at 60-80% confluence were transfected with siRNAs by using Lipofectamin 3000 according to the user's manual. Total protein lysates were subjected to WB analysis.
as §2, with “Healthcare). […]” for “Healthcare).”

A431/CCKBR tumors = assay: Immunochemistry (HE and Ki67 staining) of tumor sections; type: in vivo, mouse; settings: five daily doses; for necrosis (percent of necrotic area): PBS-treated tumors 1.4±1.2%; for mitotic index: control 1.08±0.2%; for Ki67 positive cells: control 80±3.1%
Procedure: Paraffin sections of formalin-fixed A431/CCKBR tumors were subjected to deparaffinization. Rehydrated slides were pretreated in 10 mM citrate buffer, pH 6.0, at 98° C. for 60 minutes, followed by incubation with 4% fat-free milk in PBS for 90 minutes. For avidin/biotin blocker treatment (Invitrogen) and detection, the ABC method was used according to the manufacturer's instructions. For monoclonal antibody against Ki67 (Thermo Scientific, SP6) signals were recorded using an automated instrument reagent system (Discovery XT, Ventana Medical System Inc.) according to the user manual. Images of hematoxylin-counterstained sections were captured (Nikon, YTHM) and analyzed using ImageAccess Enterprise7 and ImageJ software (Schneider et al. Nat Methods 2012, 9(7), 671-675).
Paraffin tumor sections prepared from A431/CCKBR-tumor bearing nude mice treated with five daily doses of RAD001, metformin and PBS (control) were subjected to immunohistochemistry. RAD001 and PBS group includes 5 tumors, while in metformin group 4 tumors were analyzed.

[4] = tested on: A431/CCKBR-tumor bearing nude mice; assay: Animal therapeutic study: tumor growth and survival; type: in vivo, mouse; settings: for average tumor size on day 13: control 0.97 cm^3; for Median Survival: control 19.5
Procedure: For the animal study, human epidermoid carcinoma A431 cell line, which overexpresses CCKBR, was generated previously and kindly provided by Dr. Luigi Aloj. A431/CCKBR cells were cultured in DMEM, supplemented with 10% FCS, 2 mM glutamine and antibiotics (0.1 mg/mL streptomycin, 100 IU penicillin) at 37° C. and 5% CO2. […] RAD001 (3 mg/kg), or PBS (control) were administered via intraperitoneal injection daily for 5 or 10 days, as indicated. […] The tumor diameters and mice weight were recorded daily. The tumor volume was calculated by using the formula V=(W2×L)/2. The nude mice were sacrificed when the tumor volume exceeded 1.5 cm^3. […] These mice were excluded from the analysis.
In this experiment, GraphPad Prism 7.00 for Windows was used for all statistical analysis. One-way ANOVA combined with two-stage linear step-up procedure of Benjamini, Krieger and Yekutieli for multiple comparison test was used for all treated groups. Log-rank (Mantel-Cox) test was performed to compare different survival curves of the treatment groups with the control group. Endpoints were defined as death in the survival curves. Values of P≤0.05 were considered statistically significant.

A431/CCKBR xenograft [5] = assay: Biodistribution study in A431/CCKBR xenograft mouse model; settings: three daily doses, FIG. 7B
Procedure: (§3) Immunocompromised CD-1 female nude mice (Charles Rivers, Germany) were housed one week before experimentation. Prior to tumor implantation, A431/CCKBR cells were harvested and 5 min cells in 0.1 mL of sterile phosphate-buffered saline (PBS) containing 0.9% NaCl were injected subcutaneously (two tumors per animal) into mice anesthetized by isoflurane/oxygen inhalation. After 5 days, animals were randomly distributed into 3 experimental groups and tumor size was measured non-invasively with a caliper. RAD001 (3 mg/kg), metformin (200 mg/kg) or PBS (control) were administered daily via intraperitoneal injection for 3 or 5 consecutive days, as indicated. […] Post mortem dissected tumors and organs were weighed and their activity was measured in a gamma counter.
(§4) To investigate the effects of RAD001 and metformin in vivo, A431/CCKBR cells were implanted subcutaneously into immunocompromised nude mice, and 5 days later after tumor formation, mice were subjected to treatment with RAD001, metformin or PBS (control) as described above.

A431/CCKBR xenograft [6] = settings: in vivo
Procedure: as §3, §4

Row | Compound | changes in cell proliferation (A431/CCKBR cells [1]) | Protein levels as compared to control (A431/CCKBR cells [2]) [%] | membrane bound activity (A431/CCKBR cells [2]) | Protein levels as compared to control (AR42J cells) [%] | phosphorylation of ribosomal protein S6 at Ser235/236 [3] | increase of the CCKBR expression (CCKBR) | necrosis (percent of necrotic area) (A431/CCKBR tumors) | mitotic index (A431/CCKBR tumors) | Ki67 positive cells (A431/CCKBR tumors) | average tumor size on day 13 ([4]; 5 doses of RAD001 (3 mg/kg i.p. daily)) [cm^3] | average tumor size on day 13 ([4]; 10 doses of RAD001 (3 mg/kg i.p. daily)) [cm^3] | Median Survival ([4]; RAD001 5x) [days] | Median Survival ([4]; RAD001 10x) [days] | tumor growth ([4]; vs control, FIG. 10B) | mouse weight (A431/CCKBR xenograft [5]) | tumor volume (A431/CCKBR xenograft [5]) | mouse weight (A431/CCKBR xenograft [6])
1 | O=C(O)c1ccc2nc(-c3ccccc3)c(-c3ccccc3)nc2c1 [BML257] | did not show significant changes in cell proliferation |  |  |  |  |  |  |  |  |  |  |  |  |  |  |  | 
2 | CO[C@H]1C[C@@H]2CC[C@@H](C)[C@@](O)(O2)C(=O)C(=O)N2CCCC[C@H]2C(=O)O[C@H]([C@H](C)C[C@@H]2CC[C@@H](OCCO)[C@H](OC)C2)CC(=O)[C@H](C)/C=C(\C)[C@@H](O)[C@@H](OC)C(=O)[C@H](C)C[C@H](C)/C=C/C=C/C=C/1C [RAD001, Everolimus] |  | 80 | no significant difference in membrane bound activity | 84 | lack of mTORC1-regulated phosphorylation of ribosomal protein S6 at Ser235/236 | approximately 2.2 fold | 10.6±6.4% | 0.75±0.36% | 61±8.6% | 0.31 | 0.11 | 27 | 32 | significantly inhibited tumor growth | without influencing overall mouse weight | significantly reduced tumor volumes | 
3 | CN(C)C(=N)N=C(N)N [metformin] |  | 79 | no significant difference in membrane bound activity |  | lack of mTORC1-regulated phosphorylation of ribosomal protein S6 at Ser235/236 |  | did not show significant difference | did not cause significant change | did not cause significant change |  |  |  |  |  |  | no effect on tumor volume or mouse weight | no effect on tumor volume or mouse weight
4 | CO[C@H]1C[C@@H]2CC[C@@H](C)[C@@](O)(O2)C(=O)C(=O)N2CCCC[C@H]2C(=O)O[C@H]([C@H](C)C[C@@H]2CC[C@@H](O)[C@H](OC)C2)CC(=O)[C@H](C)/C=C(\C)[C@@H](O)[C@@H](OC)C(=O)[C@H](C)C[C@H](C)/C=C/C=C/C=C/1C [rapamycin] | did not show significant changes in cell proliferation |  |  |  |  |  |  |  |  |  |  |  |  |  |  |  | 
